According to patent US20240066027A1 (DOMAIN THERAPEUTICS, priority 2020, published 2024):
pIC50: −log10 of the molar value. Counter-ions that a name gives are not always drawn.

Molecular target: T1, human PAR-2 (hPAR-2) receptor expressed in HEK-293 T cells in an endogenous manner (Homo sapiens, UniProt P55085)
T1 construct: human PAR-2 (hPAR-2) receptor expressed in HEK-293 T cells in an endogenous manner; endogenous in cells; host or cells: HEK-293 T cells
T1 sequence (P55085 26-397): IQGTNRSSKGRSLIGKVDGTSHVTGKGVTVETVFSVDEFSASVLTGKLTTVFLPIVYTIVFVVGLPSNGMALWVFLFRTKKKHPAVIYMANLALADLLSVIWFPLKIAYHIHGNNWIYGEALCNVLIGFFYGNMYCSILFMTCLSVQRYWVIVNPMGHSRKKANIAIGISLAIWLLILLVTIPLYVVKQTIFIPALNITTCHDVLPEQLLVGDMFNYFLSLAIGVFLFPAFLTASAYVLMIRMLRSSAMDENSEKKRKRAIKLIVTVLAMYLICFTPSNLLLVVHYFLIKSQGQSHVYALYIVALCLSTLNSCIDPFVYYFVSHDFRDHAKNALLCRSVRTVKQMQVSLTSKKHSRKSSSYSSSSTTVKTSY
Assay: In vitro human PAR-2 functional antagonist activity using calcium assays (Fluo4AM, FLIPR Tetra)
Format: cell-based
Conditions: HEK-293 T cells stimulated by an EC80 of the 2-Furoyl-LIGRLO-NH2 peptide after 10 min incubation with compound; 20 concentrations, duplicate, two independent experiments
Summary of the method: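 Antagonist activity was taken as the decrease in the calcium response to an EC80 of 2-Furoyl-LIGRLO-NH2, measured over 5 min. The agonist was added after a 10 min compound-alone step on the same plate. The HEK-293 T cells express PAR-2 endogenously and were loaded with 1 μM Fluo4AM. Signals were referenced to buffer and EC80-alone controls.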

Row | SMILES | pIC50
1 | Cc1cc(N2CCC3(CCN(C(=O)c4ccc5c(-c6ccc(Cl)c(F)c6)cn(C(C)(C)C)c5n4)C3)C2)nc(C)c1C(=O)O (stereo not shown) [Example 128, 6-(7-(1-(tert-butyl)-3-(4-chloro-3-fluorophenyl)-1H-pyrrolo[2,3-b]pyridine-6-carbonyl)-2,7-diazaspiro[4.4]nonan-2-yl)-2,4-dimethylnicotinic acid] | < 5.00
2 | CCn1cc(-c2ccc(Cl)c(F)c2)c2ccc(C(=O)N3CCN(c4cc(C)c(C(=O)O)c(C)n4)CC3(C)C)nc21 [Example 129, 6-(4-(3-(4-chloro-3-fluorophenyl)-1-ethyl-1H-pyrrolo[2,3-b]pyridine-6-carbonyl)-3,3-dimethylpiperazin-1-yl)-2,4-dimethylnicotinic acid] | > 7.70
3 | Cc1cc(N2CCN(C(=O)c3ccc4c(-c5ccc(Cl)c(F)c5)cn(C(C)(C)C)c4n3)[C@H](C)C2)nc(C)c1C(=O)O [Example 130, (R)-6-(4-(1-(tert-butyl)-3-(4-chloro-3-fluorophenyl)-1H-pyrrolo[2,3-b]pyridine-6-carbonyl)-3-methylpiperazin-1-yl)-2,4-dimethylnicotinic acid] | 5.00 to 7.70
4 | Cc1cc(N2CCN(C(=O)c3ccc4c(-c5ccc(Cl)c(F)c5)cn(C(C)(C)c5ccccn5)c4n3)C(C)(C)C2)nc(C)c1C(=O)O [Example 131, 6-(4-(3-(4-chloro-3-fluorophenyl)-1-(2-(pyridin-2-yl)propan-2-yl)-1H-pyrrolo[2,3-b]pyridine-6-carbonyl)-3,3-dimethylpiperazin-1-yl)-2,4-dimethylnicotinic acid] | > 7.70
5 | COCC1CN(C(=O)c2ccc3c(-c4ccc(Cl)c(F)c4)cn(C(C)(C)C)c3n2)CCN1c1cc(C)c(C(=O)O)c(C)n1 (stereo not shown) [Example 132, 6-(4-(1-(tert-butyl)-3-(4-chloro-3-fluorophenyl)-1H-pyrrolo[2,3-b]pyridine-6-carbonyl)-2-(methoxymethyl)piperazin-1-yl)-2,4-dimethyinicotinic acid] | 5.00 to 7.70
6 | Cc1cc(N2CCN(C(=O)c3ccc4c(-c5ccc(Cl)c(F)c5)cn(CC(=O)O)c4n3)C(C)(C)C2)nc(C)c1C(=O)O [Example 133, 6-(4-(1-(carboxymethyl)-3-(4-chloro-3-fluorophenyl)-1H-pyrrolo[2,3-b]pyridine-6-carbonyl)-3,3-dimethylpiperazin-1-yl)-2,4-dimethylnicotinic acid] | < 5.00
7 | COCCn1cc(-c2ccc(Cl)c(F)c2)c2ccc(C(=O)N3CCN(c4cc(C)c(C(=O)O)c(C)n4)CC3(C)C)nc21 [Example 134, 6-(4-(3-(4-chloro-3-fluorophenyl)-1-(2-methoxyethyl)-1H-pyrrolo[2,3-b]pyridine-6-carbonyl)-3,3-dimethylpiperazin-1-yl)-2,4-dimethyinicotinic acid] | > 7.70
8 | Cc1cc(N2CCN(C(=O)c3ccc4c(-c5ccc(Cl)c(F)c5)cn(Cc5cccnc5)c4n3)C(C)(C)C2)nc(C)c1C(=O)O [Example 135, 6-(4-(3-(4-chloro-3-fluorophenyl)-1-(pyridin-3-ylmethyl)-1H-pyrrolo[2,3-b]pyridine-6-carbonyl)-3,3-dimethylpiperazin-1-yl)-2,4-dimethylnicotinic acid hydrochloride] | 5.00 to 7.70
9 | COC[C@H](C)n1cc(-c2ccc(Cl)c(F)c2)c2ccc(C(=O)N3CCN(c4cc(C)c(C(=O)O)c(C)n4)CC3(C)C)nc21 [Example 136, (S)-6-(4-(3-(4-chloro-3-fluorophenyl)-1-(1-methoxypropan-2-yl)-1H-pyrrolo[2,3-b]pyridine-6-carbonyl)-3,3-dimethylpiperazin-1-yl)-2,4-dimethylnicotinic acid] | > 7.70
10 | CC1(C)CN(c2ccc(C(=O)O)cn2)CCN1C(=O)c1ccc2c(-c3ccc(Cl)c(F)c3)cn(C(C)(C)C)c2n1 [Example 137, 6-(4-(1-(tert-butyl)-3-(4-chloro-3-fluorophenyl)-1H-pyrrolo[2,3-b]pyridine-6-carbonyl)-3,3-dimethylpiperazin-1-yl)nicotinic acid] | > 7.70
